The text below walks through data of paper PMC2783484 (Molecular and biochemical parasitology, 2009).

Data set [1] has as its target T1, PfENT1 (Plasmodium falciparum, UniProt Q8IDM6). Kind of data set: Uptake competition vs [3H]hypoxanthine in PfENT1-expressing Xenopus oocytes. The format is cell-based. The following applies: for Ki / competition with uptake of 100 nM [3H]hypoxanthine: 10 min uptake; for Ki: one site fit, Cheng-Prusoff, mean ± SEM; for competition with uptake of 100 nM [3H]hypoxanthine: 2.5 and 10 mM competitor.

Data set [2] deals with T1, PfENT1. Kind of data set: Uptake competition vs [3H]adenosine in PfENT1-expressing Xenopus oocytes. The format is cell-based.
Data set [3] deals with T1, PfENT1. The following applies: cited from earlier work.
Data set [4] has as its target T1, PfENT1. Briefly: Time course of radiolabeled substrate uptake by PfENT1-expressing oocytes. The format is cell-based. The following applies: […] [3H] substrate.
The subject of the next data set is intact parasites. The following applies: read-out: Km for uptake in intact parasites; Quashie et al. (2008); cited from earlier work.
A further data set deals with PfHGXPRT. The settings on record: read-out: Km for HGXPRT; cited from earlier work.
A further data set concerns P. falciparum. The following applies: cited from earlier work; for concentration toxic to parasite growth: as sole purine source in culture.
Where [5] appears, read: Ki, Competition vs. [3H]hypoxanthine, 100 nM [3H]hypoxanthine.
[6] abbreviates: read-out: PfENT1 Km, Xenopus oocytes, Carter and coworkers.
Where [7] appears, read: read-out: PfENT1 transport Km, Xenopus oocytes, Parker et al.

Molecules are shown by their SMILES. Read-outs that look alike come from different tables or passages of the source.

T1 sequence (Q8IDM6 whole entry): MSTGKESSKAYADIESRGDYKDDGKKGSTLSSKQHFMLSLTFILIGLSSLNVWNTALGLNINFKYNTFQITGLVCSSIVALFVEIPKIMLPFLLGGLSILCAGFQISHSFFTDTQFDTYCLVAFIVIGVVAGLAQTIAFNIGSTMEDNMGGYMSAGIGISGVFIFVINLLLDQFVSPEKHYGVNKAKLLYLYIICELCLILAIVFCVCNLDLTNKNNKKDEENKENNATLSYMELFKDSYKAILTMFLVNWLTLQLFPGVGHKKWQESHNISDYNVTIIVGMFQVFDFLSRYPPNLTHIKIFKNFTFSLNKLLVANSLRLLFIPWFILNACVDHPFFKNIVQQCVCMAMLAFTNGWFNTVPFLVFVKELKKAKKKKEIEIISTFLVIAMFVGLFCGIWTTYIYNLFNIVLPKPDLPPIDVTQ

Usually Ki stands for a dissociation constant, usually derived from enzyme kinetics or from competition with a known ligand. For the molecule `O=c1[nH]cnc2cc[nH]c12` [9-Deaza-hypoxanthine, 9-Deazahypoxanthine], the figures for the Ki on PfENT1 [1] (setting [5]) and on PfENT1 [2] were 710 ± 410 µM and 940 ± 270 µM, respectively.
The term Km denotes the concentration of substrate that gives half-maximal velocity. As for `Nc1ncnc2c1ncn2[C@@H]1O[C@H](CO)[C@@H](O)[C@H]1O` [Adenosine], the Km on PfENT1 [3] (setting [6]) was 13 µM; at PfENT1 [3] (read-out: PfENT1 adenosine Km, Downie et al.), 1860 µM; on PfENT1 [3] (setting [7]), 320 µM. In addition, the “uptake per oocyte at 60 min” value at PfENT1 [4] is recorded as approximately 7 pmol.
Regarding `O=c1[nH]cnc2nc[nH]c12` [Hypoxanthine], the Km in the data set with intact parasites was 0.34 µM; at PfENT1 [3] (setting [7]), 410 µM; with PfHGXPRT it was 0.46 µM. Further, the “block of [3H]hypoxanthine uptake” value on PfENT1 [1] (2 mM unlabeled hypoxanthine, 100 nM [3H]hypoxanthine) is ~ 90%. In addition, the Ki on PfENT1 [1] (setting [5]) stood at 300 ± 32 µM.
For `O=c1[nH]cnc2c([C@@H]3N[C@H](CO)[C@@H](O)[C@H]3O)c[nH]c12` [ImmH, Immucillin-H], the “competition with uptake of 100 nM [3H]hypoxanthine” value (from here on “competition with uptake of 100 nM”) on PfENT1 [1] is recorded as “failed to compete”. Besides, the “inhibition of parasite growth” value in the data set with P. falciparum (10 μM immucillinH in the presence of 10 μM hypoxanthine) was “completely inhibited parasite growth”.
For the molecule `Nc1ncnc2c(C3N[C@H](CO)[C@@H](O)[C@H]3O)c[nH]c12` (some centres unmarked) [Immucillin-A], on PfENT1 [1], the “competition with uptake of 100 nM” value was “failed to compete”.
In the case of `Nc1nc2c([C@@H]3N[C@H](CO)[C@@H](O)[C@H]3O)c[nH]c2c(=O)[nH]1` [Immucillin-G], at PfENT1 [1], the “competition with uptake of 100 nM” value is listed as “failed to compete”.
`Nc1ncnc2c1c(I)cn2[C@@H]1O[C@H](CO)[C@@H](O)[C@H]1O` [Iodotubercidin, 5′-iodotubercidin]: the Ki on PfENT1 [1] (setting [5]) turned out to be 54 ± 8 µM; on PfENT1 [2] it was 66 ± 15 µM. Besides, the “second site, fold higher apparent affinity” value at PfENT1 [2] (two-site fit vs [3H]adenosine) was found to be 1000 fold.
On to `CSC[C@H]1N[C@@H](c2c[nH]c3c(=O)[nH]cnc23)[C@H](O)[C@@H]1O` [MT-ImmH], for which the “effect on malaria parasites during in vitro culture” value in the data set with P. falciparum is “lethal”.
`CSC[C@H]1O[C@@H](n2ccc3c(N)ncnc32)[C@H](O)[C@@H]1O` [MT-Tubercidin (10), 5′-methylthiotubercidin]: at PfENT1 [1] (read-out: Ki, Competition vs. [3H]hypoxanthine, 100 nM [3H]hypoxanthine), the Ki was 1100 µM.
`Nc1ncnc2c1ccn2[C@@H]1O[C@H](CO)[C@@H](O)[C@H]1O` [Tubercidin, 7-deazaadenosine]: the values for the Ki at PfENT1 [1] (setting [5]) and at PfENT1 [2] were 420 ± 110 µM and 590 ± 100 µM, respectively. Also, in the data set with P. falciparum (in vitro culture in RPMI media supplemented with human serum), the “IC37, parasite growth inhibition” value was 0.4 to 0.7 µM.
`Nc1ncnc2nc[nH]c12` [adenine]: on PfENT1 [3] (setting [7]), the Km was 320 µM.
With `NC[C@H]1O[C@@H](n2cc(I)c3c(Cl)ncnc32)[C@H](O)[C@@H]1O` [compound 1, 4-Chloro-5-iodo-7-(5-amino-5-deoxy-β-d-ribofuranosyl)pyrrolo[2,3-d]pyrimidine], the inhibitory constant (Ki) on PfENT1 [1] (setting [5]) came out at 3400 µM; at PfENT1 [2] it was 1200 ± 300 µM. Also, at PfENT1 [1] (vs [3H]hypoxanthine), the “increase of transport Ki compared to tubercidin” value is on record as 8 fold.
As to `Nc1nc2nc[nH]c2c(=O)[nH]1` [guanine], the Km with PfHGXPRT was 0.3 µM. Also, the “concentration toxic to parasite growth” value in the data set with P. falciparum was more than 50 µM.
Regarding `Nc1nc2c(ncn2[C@@H]2O[C@H](CO)[C@@H](O)[C@H]2O)c(=O)[nH]1` [guanosine], the “concentration toxic to parasite growth” value in the data set on P. falciparum was more than 50 µM.
As to `OC[C@H]1O[C@@H](n2cnc3c(O)ncnc32)[C@H](O)[C@@H]1O` [inosine], the Km at PfENT1 [3] (setting [6]) was 253 µM.
As to `O=c1[nH]c(=O)c2[nH]cnc2[nH]1` [xanthine], in the data set with P. falciparum, the “concentration toxic to parasite growth” value was more than 50 µM.
